Test results as given in the NIST ThermoML archive (doi:10.1021/je200790q).

Tests used:
[1] = 101.33 kPa, Liquid; for mass density: Vibrating tube method
[2] = refractive index (Na D-line) (dimensionless); details: 101.33 kPa, Liquid, Standard Abbe refractometry
[3] = molar heat capacity at constant pressure; details: 298.15 K; 101.33 kPa; Liquid; Drop calorimetry

CCn1cc[n+](C)c1.Cc1ccc(S(=O)(=O)[O-])cc1 [1-ethyl-3-methylimidazolium 4-methylbenzenesulfonate]
Details	mass density, [1] [kg/m3]	refractive index, [2]	viscosity, [1] [mPa·s]
303.15 K	1223.4	–	1417.4
308.15 K	1220	–	842.45
313.15 K	1216.6	–	531.73
318.15 K	1213.2	–	351.97
322.73 K	–	1.53844	–
323.15 K	1210	–	242.85
325.68 K	–	1.53757	–
327.64 K	–	1.53703	–
328.15 K	1206.8	–	173.69
329.61 K	–	1.53649	–
332.55 K	–	1.5357	–
333.15 K	1203.7	–	128.18
334.52 K	–	1.53509	–
336.48 K	–	1.53461	–
338.15 K	1200.6	–	97.21
338.44 K	–	1.53409	–
340.41 K	–	1.53356	–
342.37 K	–	1.53304	–
343.15 K	1197.6	–	75.51
348.15 K	1194.5	–	59.9
353.15 K	1191.5	–	48.42
358.15 K	1188.5	–	39.81
363.15 K	1185.5	–	33.22

CCn1cc[n+](C)c1.CO[PH](=O)[O-] [1-ethyl-3-methylimidazolium methyl phosphonate]
Details	mass density, [1] [kg/m3]	refractive index, [2]	viscosity, [1] [mPa·s]
278.15 K	1222.2	–	916.06
283.15 K	1218.6	–	598.79
288.15 K	1215.1	–	406.82
288.37 K	–	1.49534	–
293.15 K	1211.7	–	285.8
293.28 K	–	1.4939	–
298.15 K	1208.3	–	206.76
298.19 K	–	1.49249	–
303.1 K	–	1.49115	–
303.15 K	1205	–	153.63
308.01 K	–	1.48982	–
308.15 K	1201.8	–	116.89
312.91 K	–	1.48854	–
313.15 K	1198.6	–	90.83
317.82 K	–	1.48714	–
318.15 K	1195.5	–	71.92
323.15 K	1192.3	–	57.94
328.15 K	1189.2	–	47.38
333.15 K	1186.1	–	39.29
338.15 K	1183	–	32.99
343.15 K	1179.9	–	28.02
348.15 K	1176.9	–	24.05
353.15 K	1173.9	–	20.83
358.15 K	1170.9	–	18.2
363.15 K	1167.9	–	16.03

Details	molar heat capacity at constant pressure [J/K/mol]
[3]	354.63

CCn1cc[n+](C)c1.O=S(=O)([O-])C(F)(F)F [1-ethyl-3-methylimidazolium trifluoromethanesulfonate]
Details	mass density, [1] [kg/m3]	refractive index, [2]	viscosity, [1] [mPa·s]
278.15 K	1403.3	–	99.83
283.15 K	1398.9	–	78.93
288.15 K	1394.5	–	63.51
288.37 K	–	1.43572	–
293.15 K	1390.2	–	51.87
293.28 K	–	1.43432	–
298.15 K	1385.9	–	42.94
298.19 K	–	1.43296	–
303.1 K	–	1.43159	–
303.15 K	1381.6	–	35.98
308.01 K	–	1.43025	–
308.15 K	1377.3	–	30.48
312.91 K	–	1.42886	–
313.15 K	1373.1	–	26.09
318.15 K	1368.9	–	22.53
323.15 K	1364.8	–	19.62
328.15 K	1360.6	–	17.21
333.15 K	1356.5	–	15.21
338.15 K	1352.5	–	13.52
343.15 K	1348.4	–	12.1
348.15 K	1344.4	–	10.88
353.15 K	1340.4	–	9.845
358.15 K	1336.4	–	8.948
363.15 K	1332.5	–	8.169

Details	molar heat capacity at constant pressure [J/K/mol]
[3]	362.8

CC(=O)[O-].CCn1cc[n+](C)c1 [1-ethyl-3-methylimidazolium acetate]
Details	mass density, [1] [kg/m3]	refractive index, [2]	viscosity, [1] [mPa·s]
278.15 K	1112.4	–	723.62
283.15 K	1108.9	–	451.35
288.15 K	1105.6	–	295.7
288.37 K	–	1.50371	–
293.15 K	1102.4	–	202.29
293.28 K	–	1.50233	–
298.15 K	1099.3	–	143.61
298.19 K	–	1.50091	–
303.1 K	–	1.49949	–
303.15 K	1096.2	–	105.3
308.01 K	–	1.49807	–
308.15 K	1093.6	–	79.32
312.91 K	–	1.49666	–
313.15 K	1090	–	61.33
318.15 K	1087	–	48.41
323.15 K	1084	–	38.95
328.15 K	1081	–	31.87
333.15 K	1078	–	26.47
338.15 K	1075	–	22.27
343.15 K	1072.1	–	18.96
348.15 K	1069.2	–	16.31
353.15 K	1066.3	–	14.16
358.15 K	1063.4	–	12.41
363.15 K	1060.6	–	10.95

Details	molar heat capacity at constant pressure [J/K/mol]
[3]	321.9
